{"source": "patent US20260263638A1", "about": "“COMPOSITIONS AND METHODS TO IMPROVE RNA PROPERTIES USING BASE, PHOSPHODIESTER LINKAGE, SUGAR BACKBONE, AND CAP MODIFICATIONS” (The Broad Institute, Inc., priority 2023, published 2026)", "key": {"HeLa cells [1]": {"system": "HeLa cells", "experiment": "Time-course dual luciferase assay of modified Firefly luciferase mRNA (Renilla control)", "type": "cell-based", "details": "HeLa cells; 8-, 24-, 48-hours post-transfection; benchmark m7G-rG", "experimental": "The modularity of this workflow enabled divergent construction and evaluation of mRNAs featuring four different types of cap and 5′ UTR modifications (FIG. 8A): (1) base identities within the 5′ UTR, including as locations beyond the third base (+3 position), (2) phosphodiester linkages within the 5′ UTR, (3) sugar backbone modifications within the 5′ UTR, and (4) cap modifications. The effects of all of these different types of modifications on protein translation were assayed using Firefly luciferase reporter at 8-, 24-, and 48-hours post-transfection.\nHeLa cells [ATCC, CCL-2] were maintained in DMEM culture media [ThermoFisher Scientific, 119951] containing 10% FBS and 1% penicillin-streptomycin [ThermoFisher Scientific, 15070063] in a 37° C. incubator with 5% CO2 and passaged at a ratio of 1:10 every 3 days. On the day before mRNA transfection, HeLa cells were seeded at 90% confluence in individual wells on 24-well plates. The following day, 50 ng of Renilla luciferase (internal control) mRNA and 50 ng of modified Firefly luciferase mRNA were transfected using Lipofectamine MessengerMAX Transfection Reagent [ThermoFisher Scientific, LMRNA003] per manufacturer's protocols. Additional controls that contain only Renilla luciferase mRNA or lipofection reagent only were included. Three individual transfections were conducted for each condition. 6 hours after transfection, the transfection media was removed, and cells were trypsinized and reseeded to three white clear-bottom 96-well plates [Corning, 3610] in phenol-red-free media. At 8-, 24-, and 48-hours post-transfection, cell culture media was removed and cells were rinsed with DPBS. Cells were lysed and luciferase activity was measured using the Promega Dual Glo Luciferase Assay System [Promega, E2920]. Firefly luminescence/Renilla luminescence for each well was used as mRNA activity readout. In cases where Nluc and Fluc were used, the protocol was conducted similarly using the Nano-Glo Dual-Luciferase Reporter Assay System [Promega, N1610]."}, "eIF4E [2]": {"target": "T1, eIF4E (Homo sapiens, UniProt P06730)", "T1 construct": "His; purchased Cayman Chemical Inc 25150", "experiment": "eIF4E electrophoretic mobility shift assay (EMSA)", "type": "binding", "details": "AF647-labeled capped oligos, read-out: eIF4E dissociation constant (Kd)", "experimental": "(§1) eIF4E affinity to fluorophore-labeled capped RNA oligonucleotides was quantified through electrophoretic mobility shift assay (EMSA) (FIGS. 14D and 9A-9E).\n(§2) Capped oligonucleotides were labeled on the 3′ end using AF647 labeled cytidine-5′-phosphate-3′-(6-aminohexyl) phosphate [Jena Bioscience, NU-1706-AF647] and T4 RNA ligase ligated AF647-labeled cytidine onto the capped oligos using manufacturer's protocols. Oligos were then incubated in the binding buffer (1 mM DTT, 50 mM KCl, 10 mM Tris-HCl (pH 7.6), Novex Hi-Density TBE Sample Buffer [Invitrogen, LC6678]) with varying eIF4E-His [Cayman Chemical Inc, 25150] concentrations prepared by sequential dilutions from the stock solution. The oligos and […] were incubated at 4° C. for 30 mins and characterized by EMSA with Novex TBE Gels, 4-20% [Invitrogen, EC6225BOX] at 4° C. AF647 labeled oligos were imaged with BioRad ChemiDoc MP Imaging System [12003154] and band intensities were quantified using ImageJ. For Kd calculation, the proportions of bound were plotted against eIF4E concentration using GraphPad Prism (Specific binding with Hill slope)."}, "[3]": {"target": "T2, human decapping enzyme 2 (hDcp2) (Homo sapiens, UniProt Q8IU60)", "T2 construct": "purchased Enzymax LLC 86", "experiment": "hDcp2 decapping assay", "type": "biochemical", "details": "23-nt capped oligos; for Susceptibility / resistance to hDcp2 decapping: result in words", "experimental": "Next, the influence of modifications on decapping activity was examined. To this end, 23-nucleotide (23-nt) oligonucleotides with various modification patterns were subjected to decapping reactions and analyzed at different time intervals (FIGS. 14E and 9I).\n500 ng of capped oligos were incubated in 75 μL decapping reaction buffer (10 mM Tris-HCl (pH 7.5), 100 mM NaCl, 2 mM MgCl2, 1 mM DTT, 2 mM MnCl2, 1:25 SUPERaseIn (v/v)) with 300 ng of hDcp2 [Enzymax LLC, 86] at 37° C. At indicated time points, 5 μL of reaction mixture was aliquoted out into 10 μL of denaturing gel-loading buffer [NEB, B0363S, with urea added to a final concentration of 5 M] and cooled to −20° C. until all time points were collected. The fractions were analyzed by PAGE using Novex 15% TBE-Urea gel [Invitrogen, EC6885BOX] by running at 100 V for 2 hours and stained by 1×SYBR Gold [ThermoFisher Scientific, S11494], and visualized using BioRad ChemiDoc MP Imaging System [12003154]. Band intensities were quantified using ImageJ."}, "HeLa cells [4]": {"system": "HeLa cells", "experiment": "NLuc bioluminometry of circRNA/QRNA (Fluc transfection control)", "type": "cell-based", "details": "capped oligo:circRNA up to 80:1 molar ratio", "experimental": "Synthetic linear mRNA encoding NanoLuciferase (NLuc) was prepared from DNA template by IVT with 100% m1ψ substitution. The triphosphorylated mRNA after IVT was then treated with Calf Intestinal Alkaline Phosphatase (CIAP) to yield 5′/3′-hydroxyl mRNA. A chemically synthesized oligonucleotide with a branched m7G cap and 5′/3′-phosphates was then ligated to the 5′/3′-hydroxyl mRNA by T4 RNA ligase, which ligates the 5′-phosphate on the oligo and 3′-hydroxyl of the mRNA. The ligation product was then further treated with RtcB ligase, which ligates the 5′-hydroxyl and 3′-phosphate ends to enable intramolecular circularization. […] Using one primer only produced no fragmentation but only linearization, confirming successful circularization. Using double primers produced fragments flanking the branched region, where branched topology was confirmed by gel shift. […] NLuc bioluminometry was measured 8 hrs post transfection and normalized Firefly luciferase as transfection control. Mean±s.e.m., n=3. P values were calculated by ordinary one-way ANOVA (alpha=0.05), with multiple comparisons to circ-NLuc with only 5-octadiynyl deoxyuridine (OU) handle (construct 45). ****P<0.0001, n.s. P>0.05. […] QRNA with m7G (construct 48) was compared. n=3, biological replicates. Mean±sem. P values were calculated by ordinary one-way ANOVA with multiple comparisons against construct 61 without any cotransfected capped oligos (Dunnett's multiple comparison test). […] P values were calculated by unpaired two-sided t-test.\nHeLa cells [ATCC, CCL-2] were maintained in DMEM culture media [ThermoFisher Scientific, 119951] containing 10% FBS and 1% penicillin-streptomycin [ThermoFisher Scientific, 15070063] in a 37° C. incubator with 5% CO2 and passaged at a ratio of 1:10 every 3 days. […] Cells were lysed and luciferase activity was measured using the Promega Dual Glo Luciferase Assay System [Promega, E2920]. Firefly luminescence/Renilla luminescence for each well was used as mRNA activity readout. […]"}, "[5]": {"experiment": "Quantification of plasma hEPO by ELISA after mRNA-LNP injection", "type": "in vivo", "details": "mice; hEPO mRNA-LNP retro-orbital; 6 hours", "experimental": "All animal procedures followed animal care guidelines approved by the Institutional Animal Care and Use Committee (IACUC) of the Broad Institute of MIT and Harvard under animal protocol #0255-08-19. Animal experiments were conducted in compliance with IACUC policies and NIH guidelines. The BALB/cj (male, 6~8 weeks old) mice used for in vivo NanoLuc assay in this study were purchased from The Jackson Laboratory (JAX). The C57BL/6 mice (female, 7 weeks old), used for hEPO assay in this study were purchased from The Jackson Laboratory (JAX).\n(§3) mRNA diluted in 50 mM citrate buffer (pH 4) and lipid mix (37.5 mM in ethanol) containing 50 mol % SM-102, 10 mol % DSPC, 38.5 mol % Cholesterol, and 1.5 mol % DMG-PEG2000 were assembled into LNP using a NanoAssemblr Spark instrument [Precision Nanosystems]. Upon formulation, mRNA-LNPs were diluted in 12 mL 1×PBS solution and the buffer was exchanged by concentrating with a 30 kDa spin filter [MilliporeSigma, UFC901008] to remove residue ethanol. Concentrations and encapsulation efficiency of mRNA were determined using Quant-it RiboGreen RNA Assay Kit [ThermoFisher, R11490]. 1 μg NanoLuc or hEPO mRNA-LNP in a total volume of 100 μL was injected through retro orbital injection into each mouse. Four mice were used for each condition of each experiment (NanoLuc imaging, hEPO ELISA, and reticulocyte counting). For NanoLuc imaging, PBS injection was used as negative control. For hEPO/reticulocyte experiments, poly(C)-LNP complex was used as negative control.\nAt the indicated time points, approximately 100 μL of blood was collected with EDTA-coated capillary tubes from each mouse and then transferred to an EDTA-coated tube. The collected blood samples were centrifuged at 2000 g for 10 min, followed by transferring the resulting plasma into another tube. The hEPO levels in the plasma samples were measured by Human Erythropoietin (EPO) ELISA kit [LEGEND MAX, 442907]. Final concentrations for hEPO were adjusted based on the volume and dilution fold."}, "reticulocytes": {"system": "reticulocytes", "experiment": "Plasma reticulocyte counting by flow cytometry", "type": "in vivo", "details": "mice", "experimental": "as §3\n10 μL […] sample was added into 1 mL of the Reticulocyte Reagent [BD Bioscience] at the indicated time points and the mixture was incubated at room temperature for 30 minutes with protection from light. The samples were analyzed with Beckman CytoFLEX LX Flow Cytometer with 100,000-event records for each sample. Thiazole orange positive cells are defined as reticulocytes."}, "eIF4E [6]": {"target": "eIF4E (UniProt P06730 P06730:1-217)", "sequence (P06730 whole entry, one chain of several)": "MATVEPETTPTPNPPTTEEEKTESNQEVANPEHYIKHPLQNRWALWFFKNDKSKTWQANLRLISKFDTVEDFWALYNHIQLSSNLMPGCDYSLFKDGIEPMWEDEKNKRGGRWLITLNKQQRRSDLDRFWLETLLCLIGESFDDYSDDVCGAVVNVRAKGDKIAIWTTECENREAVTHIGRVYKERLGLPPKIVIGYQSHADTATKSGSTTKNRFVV", "experiment": "EMSA; 50 mM KCl, 10 mM Tris-HCl pH 7.6, 1 mM DTT, 4 C", "details": "tags: His tag; Cayman Chemical 25150; label: 3' AF647-cytidine (EMSA)", "experimental": "as §1, §2"}}, "note": "Strand notation (5' to 3'): a small letter for the sugar, then the base; units joined by * are phosphorothioate-linked, units joined directly phosphodiester-linked; [ ] holds rarer units or linkages, { } end groups; capitals alone tell only the bases. {m7G} = 7-methylguanosine cap nucleotide; l = locked nucleic acid (LNA); m = 2'-O-methyl; r = 2'-OH (RNA); {P} = phosphate", "data": [{"molecule": "construct 15: m7G cap; /5Phos/mAmGmAmGmAmArUrArArArArA (SEQ ID NO: 16) ({P}-mAmGmAmGmAmArUrArArArArA; m7G cap on the 5'-phosphate)", "values": [{"measurement": "Protein expression (Firefly luciferase luminescence normalized to Renilla, then to m7G-rG), fold increase", "setting": "HeLa cells [1]", "result": 6.9, "unit": "fold"}, {"measurement": "Kd", "setting": "eIF4E [2]", "result": "2450 ± 140", "unit": "nM"}, {"measurement": "Susceptibility / resistance to hDcp2 decapping", "setting": "[3]; listed as 2′OMe at first 6 bases", "result": "increased decapping resistance to a similar level as LNA modification"}, {"measurement": "Susceptibility / resistance to hDcp2 decapping", "setting": "[3]; listed as 2′OMe within the first 6 bases", "result": "increased decapping resistance"}]}, {"molecule": "construct 22: LNAm7G cap; /5Phos/+ArGrArGrArArUrArArArArA (SEQ ID NO: 23) ({P}-lArGrArGrArArUrArArArArA; LNA-modified m7G cap on the 5'-phosphate)", "values": [{"measurement": "Protein expression (Firefly luciferase luminescence normalized to Renilla, then to m7G-rG), fold increase", "setting": "HeLa cells [1]", "result": 8.6, "unit": "fold"}, {"measurement": "Kd", "setting": "eIF4E [2]", "result": "1420 ± 126", "unit": "nM"}, {"measurement": "Capped transcripts remaining after hDcp2 decapping", "setting": "[3]; after 60 minutes", "result": 71, "unit": "%~73"}]}, {"molecule": "construct 61: m1ψ NLuc circRNA with 20-nt insert, annealed non-covalently to m7G-capped complementary oligo (SEQ ID NO: 116, 177) (chain 1 AAAAACUUACCAAGCGAAGAACAGAAAAA; chain 2 GUCUGUUCUUCGCUUGGUAAG; m1ψ; circRNA; m7G-capped complementary oligo annealed; modified_base 1 OTHER; 5'-phosphate modified nucleotide; modified_base 29 OTHER; 3'-phosphate modified nucleotide; 5'-phosphate modified 7-methylguanosine)", "values": [{"measurement": "Enhancement of NLuc protein production by non-covalent complementary capped oligo", "setting": "HeLa cells [4]", "result": "up to 5 fold"}]}, {"molecule": "construct S21: hEPO mRNA with m7G-rG cap, in LNP (SEQ ID NO: 138) (GGAGAAUAAAAA; RNA, 5' {m7G}, backbone not given here; capped 5' oligo ligated to hEPO mRNA, formulated in LNP) [reference compound]", "values": [{"measurement": "Peak plasma hEPO expression", "setting": "[5]", "result": "733±123", "unit": "mlU/mL"}, {"measurement": "Effect on reticulocyte counts, result in words", "setting": "reticulocytes; day 6, vs poly(C)-LNP", "result": "non-significant"}, {"measurement": "Reticulocytes, % of total red blood cells", "setting": "reticulocytes; day 6 post-administration", "result": "4±0.3", "unit": "%"}]}, {"molecule": "AGAGAAUAAAAA (ssRNA, 5' m7G cap with LNA sugar; LNA at position 1)", "note": "[LNAm7G-LNA (22)]", "values": [{"measurement": "Kd", "setting": "eIF4E [6]", "result": 1420, "unit": "nM"}]}, {"molecule": "AGAGAAUAAAAA (ssRNA, 5' m7G cap with LNA sugar; 2'-OMe at positions 1-6)", "note": "[LNAm7G-2OMex6 (24)]", "values": [{"measurement": "Kd", "setting": "eIF4E [6]", "result": 1570, "unit": "nM"}]}, {"molecule": "AGAGAAUAAAAA (ssRNA, 5' m7G cap; 2'-OMe at positions 1-6)", "note": "[m7G-6x2OMe (15)]", "values": [{"measurement": "Kd", "setting": "eIF4E [6]", "result": 2450, "unit": "nM"}]}]}
